“And” between values parts separate entries of the source, which are not always exact repeats. Equal entries are not always repeated. “Also recorded” adds a separate entry of the source.
What was measured:
[1] = system: Sprague-Dawley Crl:CD(SD) rats; test: Rat toxicity study, single, 5-day and 28-day treatment (clinical observation, clinical pathology, autopsy, organ weights, histopathology); conditions: for Organ weight: compared with controls;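 as to all read-outs here: control rats received saline intraperitoneally, and the organs examined were adrenals, brain, kidneys, liver, spleen and thymus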
[2] = system: kidney tissues of treated or untreated rats; test: Real-time qRT-PCR of marker transcripts in kidney tissue panel, discovery stage (Table 22); assay type: in vivo, rat; parameters: AI502869_DB71_seg0 normalized Real Time PCR expression: unit not given beside the values; conditions: for normalized Real Time PCR MMU09507_DB81_seg15 / normalized Real Time PCR MUSCYCG1R_DB81_seg19-20 / normalized Real Time PCR RATRAB13X_DB81_seg15-17 / normalized Real Time PCR RATRAB13X_DB81_seg22 / normalized Real Time PCR W33294_DB81_seg23 / normalized Real Time PCR W33294_DB81_seg44: kidney; as to normalized Real Time PCR MUSCYCG1R DB81 seg19-20: test concentration or dose not given here; as to normalized Real Time PCR RATRAB13X DB81 seg15-17: test concentration or dose not given here; as to normalized Real Time PCR RATRAB13X DB81 seg22: test concentration or dose not given here; as to normalized Real Time PCR W33294 DB81 seg23: test concentration or dose not given here; as to normalized Real Time PCR W33294 DB81 seg44: test concentration or dose not given here
Summary of the method: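 Rat kidney RNA, DNase-treated until PCR-negative, reverse transcribed with SuperscriptII; SYBR Green real-time PCR, 40 cycles, undetected samples set to Ct 41. Relative quantity from efficiency^-Ct (standard-curve efficiency), normalized to the geometric mean of four median-scaled housekeeping genes, then multiplied by a constant factor.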

[3] = 28-day treatment, male and female rats
[4] = female rats, day5, listed as Gent
[5] = rat kidney, day1, individual animals

Gentamycin was tested, and the Autopsy findings ([1]; 5-day treatment) was “No effect”, the Body weight gain ([1]; 5-day treatment) was “Body weight gain was decreased in females” and the Clinical pathology ([1]; 5-day treatment) was “elevated urea nitrogen levels found in females; also recorded: ♀: ↑↑BUN”. The “Histopathology / renal damage” value ([1]; 5-day treatment) was “No nephrotoxicity was observed; also recorded: No renal damage was found at histopathological examination”, the Organ weight ([1]; 5-day treatment) was “No effect” and the “Body weight and body weight gain” value ([1]; 28-day treatment) was “affected body weight gain of animals in both sexes; also recorded: Effect on body weight and body weight gain was seen”. For the same substance, the Histopathology / nephrotoxicity ([1]; 28-day treatment) was “Signs of nephrotoxicity occurred in all animals of both sexes; also recorded: nephrotoxic effect of the test item was confirmed by histopathology; also recorded: basophilia in the cortex”, the “Decreasing order of nephrotoxicity at histopathological examination” value ([1]; 28-day treatment, females) was “Cisplatin, Cadmium chloride, Gentamycin, Doxorubicin and Tobramycin in females” and the Autopsy findings [1, 3] was “enlarged and discolored kidneys were observed in males; also recorded: Alterations were found in the kidneys; also recorded: ♂♀: ↑↑, pale”. The Organ weight [1, 3] was “Kidney weight increased in both sexes and Increased weights of kidneys in males and Higher weights of kidneys in females and Weights of spleen were higher in Gentamycin treated males and Decreased thymus weights were found in Gentamycin and Tobramycin treated males and ↑↑”, the “Decreasing order of nephrotoxicity at histopathological examination” value ([1]; 28-day treatment, males) was “Cisplatin, Gentamycin, Tobramycin and Doxorubicin in males” and the “normalized Real Time PCR MMU09507_DB81_seg15” value ([2]; female rats, day1) was 0.41 and 0.43 and 0.23. For the same substance, the “normalized Real Time PCR MUSCYCG1R_DB81_seg19-20” value ([2]; female rats, day1) was 0.67 and 0.55 and 0.44, the “normalized Real Time PCR RATRAB13X_DB81_seg15-17” value ([2]; female rats, day1) was 0.9 and 0.63 and 0.55 and the “normalized Real Time PCR RATRAB13X_DB81_seg22” value ([2]; female rats, day1) was 0.98 and 0.71 and 0.51. For the same substance, the “normalized Real Time PCR W33294_DB81_seg23” value ([2]; female rats, day1) was 1 and 0.51 and 0.94, the “normalized Real Time PCR W33294_DB81_seg44” value ([2]; female rats, day1) was 1.02 and 0.8 and 0.77 and the “normalized Real Time PCR MUSCYCG1R_DB81_seg19-20” value ([2]; female rats, day5) was 1.41. The “normalized Real Time PCR MMU09507_DB81_seg15” value [2, 4] was 0.78 and 0.62 and 1.13, the “normalized Real Time PCR MUSCYCG1R_DB81_seg19-20” value [2, 4] was 1.23 and 1.42 and the “normalized Real Time PCR RATRAB13X_DB81_seg15-17” value [2, 4] was 1.68 and 1.5 and 1.59. The “normalized Real Time PCR RATRAB13X_DB81_seg22” value [2, 4] was 2.16 and 2.11 and 1.91, the “normalized Real Time PCR W33294_DB81_seg23” value [2, 4] was 1.64 and 1.96 and 1.51 and the “normalized Real Time PCR W33294_DB81_seg44” value [2, 4] was 1.64 and 1.72 and 2.13. For the same substance, the “normalized Real Time PCR MMU09507_DB81_seg15” value ([2]; female rats, day28) was 1.38 and 0.96 and 0.7, the “normalized Real Time PCR MUSCYCG1R_DB81_seg19-20” value ([2]; female rats, day28) was 0.56 and 0.74 and 0.42 and the “normalized Real Time PCR RATRAB13X_DB81_seg15-17” value ([2]; female rats, day28) was 0.84 and 0.9 and 0.88. The “normalized Real Time PCR RATRAB13X_DB81_seg22” value ([2]; female rats, day28) was 0.68 and 0.56 and 0.57, the “normalized Real Time PCR W33294_DB81_seg44” value ([2]; female rats, day28) was 0.66 and 0.71 and the “normalized Real Time PCR MMU09507_DB81_seg15” value ([2]; male rats, day1) was 0.56 and 0.32 and 0.37. For the same substance, the “normalized Real Time PCR RATRAB13X_DB81_seg22” value ([2]; male rats, day1) was 0.8 and 0.99 and 0.6, the “normalized Real Time PCR W33294_DB81_seg23” value ([2]; male rats, day1) was 0.57 and 0.74 and 0.61 and the “normalized Real Time PCR W33294_DB81_seg44” value ([2]; male rats, day1) was 0.77 and 0.5 and 0.64. The “normalized Real Time PCR MMU09507_DB81_seg15” value ([2]; male rats, day5) was 0.71 and 0.41 and 0.68, the “normalized Real Time PCR MUSCYCG1R_DB81_seg19-20” value ([2]; male rats, day5) was 1.43 and 1 and the “normalized Real Time PCR RATRAB13X_DB81_seg15-17” value ([2]; male rats, day5) was 1.25 and 0.76 and 1.35. For the same substance, the “normalized Real Time PCR RATRAB13X_DB81_seg22” value ([2]; male rats, day5) was 1.25 and 0.77 and 1.16, the “normalized Real Time PCR W33294_DB81_seg23” value ([2]; male rats, day5) was 1.25 and 0.82 and 0.95 and the “normalized Real Time PCR W33294_DB81_seg44” value ([2]; male rats, day5) was 1.12 and 0.93 and 0.94. For the same substance, the “normalized Real Time PCR MMU09507_DB81_seg15” value ([2]; male rats, day28) was 0.82 and 0.59 and 0.84, the “normalized Real Time PCR MUSCYCG1R_DB81_seg19-20” value ([2]; male rats, day28) was 0.79 and 0.4 and 0.55 and the “normalized Real Time PCR RATRAB13X_DB81_seg15-17” value ([2]; male rats, day28) was 0.77 and 0.76 and 1.22. The “normalized Real Time PCR RATRAB13X_DB81_seg22” value ([2]; male rats, day28) was 0.91 and 0.88 and 0.58, the “normalized Real Time PCR W33294_DB81_seg23” value ([2]; male rats, day28) was 0.57 and 0.8 and 0.67 and the “AA686189_DB71_seg6 normalized Real Time PCR expression” value [2, 5] was 1.19 and 0.65 and 1.07 and 0.94 and 1.04 and 0.6. The “AA799594_DB71_seg0 normalized Real Time PCR expression” value [2, 5] was 1.25 and 0.72 and 0.93 and 0.57 and 0.95 and 0.92, the “AA964541_DB71_seg0 normalized Real Time PCR expression” value [2, 5] was 1.35 and 0.74 and 1.29 and 0.9 and 1.19 and 0.44 and the “AI045075_DB71_seg6 normalized Real Time PCR expression” value [2, 5] was 1.5 and 0.93 and 0 and 1.07 and 1.03 and 0.78. For the same substance, the “AI454051_DB71_seg0 normalized Real Time PCR expression” value [2, 5] was 0.9 and 0.75 and 0.57 and 0.4 and 0.54 and 0.79 and the “AI502869_DB71_seg0 normalized Real Time PCR expression” value [2, 5] was 0.83 and 0.61 and 0.53 and 1.53 and 0.99 and 0.76.

Reference: patent US20160177395A1, “BIOMARKERS FOR THE PREDICTION OF RENAL INJURY” (priority 2007, published 2016)
